The source of these data is ChEMBL document CHEMBL1136467, “A simple stereoselective synthesis and biological evaluation of FR181157: orally active prostacyclin mimetic” (Bioorg Med Chem Lett, 2003).

The nature of data set [1]: Pharmacokinetic property (AUC) was measured in dog at the dose of 0.032 mg/kg p.o. It is filed as ADME, organism-based, Canis lupus familiaris. Further details: dose 0.032 mg/kg, route oral. Particulars: in vivo, po.
Another data set has as its target Prostacyclin receptor (Homo sapiens, UniProt P43119). Kind of data set: In vitro Prostacyclin (PGI-2) receptor binding assay was determined based on displacement of [3H]iloprost radioligand from cloned human IP receptor.
Data set [2] is described as follows: Pharmacokinetic property (AUC) was measured in rat at the dose of 0.32 mg/kg p.o. Format: ADME, organism-based. The arrangement: dose 0.32 mg/kg, route oral. Particulars: in vivo, po.
The species entered for a further data set is Homo sapiens. Kind of data set: In vitro inhibition of ADP-induced platelet aggregation using human platelet rich plasma. Format: functional.
The species entered for another data set is Canis familiaris. Kind of data set: In vitro inhibition of ADP-induced platelet aggregation using dog platelet rich plasma. It is filed as functional. Particulars: Canis lupus familiaris.
Data set [3] is described as follows: Pharmacokinetic property (CLtot)of the compound was measured in rat at the dose of 0.32 mg/kg i.v. It is filed as ADME, organism-based. The arrangement: dose 0.32 mg/kg, route intravenous. Particulars: in vivo, iv, read-out: CLtotal.
Data set [4] is described as follows: Pharmacokinetic property (Tmax) was measured in rat at the dose of 0.32 mg/kg p.o. It is filed as ADME, organism-based. Further details: dose 0.32 mg/kg, route oral. Particulars: in vivo, po.
A short description of data set [5]: Pharmacokinetic property (Tmax) was measured in dog at the dose of 0.032 mg/kg p.o. Particulars: in vivo, po. It is filed as ADME, organism-based, Canis lupus familiaris. The arrangement: dose 0.032 mg/kg, route oral.
Data set [6] is described as follows: Pharmacokinetic property (t1/2beta) was measured in dog at the dose of 0.032 mg/kg i.v. Format: ADME, organism-based, Canis lupus familiaris. The arrangement: dose 0.032 mg/kg, route intravenous. Particulars: in vivo, iv, read-out: T1/2 beta (converted).
Data set [7] can be described thus: Pharmacokinetic property (F) was measured in rat at the dose of 0.32 mg/kg. It is filed as ADME, organism-based. Further details: dose 0.32 mg/kg. Particulars: in vivo.
Data set [8] is described as follows: Pharmacokinetic property (Cmax) was measured in rat at the dose of 0.32 mg/kg p.o. The arrangement: dose 0.32 mg/kg, route oral. It is filed as ADME, organism-based. Particulars: in vivo, po.
A further data set is filed under the species Rattus norvegicus. Kind of data set: In vitro inhibition of ADP-induced platelet aggregation using rat platelet rich plasma. It is filed as functional.
Data set [9] is described as follows: Pharmacokinetic property (F) was measured in dog at the dose of 0.032 mg/kg. It is filed as ADME, organism-based, Canis lupus familiaris. Further details: dose 0.032 mg/kg. Particulars: in vivo.
Data set [10] can be described thus: Pharmacokinetic property (Cmax) was measured in dog at the dose of 0.032 mg/kg. Format: ADME, organism-based, Canis lupus familiaris. The arrangement: dose 0.032 mg/kg. Particulars: in vivo.
Data set [11] in a line: Pharmacokinetic property (t1/2beta) was measured in rat at the dose of 0.32 mg/kg i.v. Format: ADME, organism-based. Further details: dose 0.32 mg/kg, route intravenous. Particulars: in vivo, iv, read-out: T1/2 beta (converted).
Data set [12] can be described thus: Pharmacokinetic property (CLtot) was measured in dog at the dose of 0.032 mg/kg i.v. The arrangement: dose 0.032 mg/kg, route intravenous. Particulars: in vivo, iv, read-out: CLtotal. It is filed as ADME, organism-based, Canis lupus familiaris.

Chain of Prostacyclin receptor (P43119 whole entry): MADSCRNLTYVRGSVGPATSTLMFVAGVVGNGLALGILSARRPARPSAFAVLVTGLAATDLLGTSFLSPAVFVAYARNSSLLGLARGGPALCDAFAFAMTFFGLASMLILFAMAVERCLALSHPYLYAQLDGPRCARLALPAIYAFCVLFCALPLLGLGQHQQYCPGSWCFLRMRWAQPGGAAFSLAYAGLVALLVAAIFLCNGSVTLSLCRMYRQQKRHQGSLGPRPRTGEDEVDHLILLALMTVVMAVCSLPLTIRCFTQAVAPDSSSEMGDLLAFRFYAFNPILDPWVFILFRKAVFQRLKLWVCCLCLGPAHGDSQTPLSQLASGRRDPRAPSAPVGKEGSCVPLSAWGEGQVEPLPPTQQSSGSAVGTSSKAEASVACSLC

Regarding `O=C([O-])COc1cccc(C[C@@H]2CCCC=C2c2nc(-c3ccccc3)c(-c3ccccc3)o2)c1.[Na+]`, the AUC (as a rule, concentration integrated over time) turned out to be 392 ng·h/mL in [1] and 147 ng·h/mL in data set [2]. Moreover, affinity on Prostacyclin receptor was put at a Ki of 54 nM. For the same compound, the IC50 (commonly the concentration that gives 50% inhibition) was found to be 60 nM in the data set filed under Homo sapiens, 1300 nM in the data set listed under Canis familiaris and 1200 nM in the data set filed under Rattus norvegicus. In addition, the clearance in data set [3] amounted to 17.7 mL/min/kg; in data set [12], 1.09 mL/min/kg. The Tmax (commonly the time from dosing to the highest level) was determined as 0.3 h in data set [4] and 2.3 h in data set [5]. For the same compound, the half-life was 26 h in data set [6] and 6.6 h in [11]. Moreover, the bioavailability (usually the share of a dose that reaches the circulation, judged against a reference dose that is usually intravenous) in data set [7] worked out at 50%; in [9], 72%. Also, the Cmax (commonly the highest concentration seen after dosing) in [8] amounted to 16.4 ng/mL; in data set [10] it was 38.7 ng/mL.

In the data set listed under Homo sapiens, `O=C(O)COc1cccc(CC2=C(c3nc(-c4ccccc4)c(-c4ccccc4)o3)CCCC2)c1` showed an IC50 of 530 nM.

In the case of `O=C(O)COc1cccc(C[C@H]2CCCC=C2c2nc(-c3ccccc3)c(-c3ccccc3)o2)c1`, in the data set listed under Homo sapiens, the IC50 amounted to 110 nM.

Consider `CC#CCC(C)[C@H](O)/C=C/[C@@H]1[C@H]2C/C(=C/CCCC(=O)O)C[C@H]2C[C@H]1O` (some centres undefined) [ILOPROST], for which the IC50 in the data set filed under Homo sapiens was determined as 2.5 nM.
